Source: PubChem BioAssay (NCI)
Several values for one entry are separate records, joined by “and”; a condition that tells them apart may be missing. Identical values can stand only once.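 Step 1: Grow cells in 96-well plates. Step 2: Expose to compound for 48 hours at 5 concentrations. Step 3: Interpolate endpoints linearly; if unreached, use highest concentration. Abbreviation: GI50, concentration required for 50% inhibition of growth. Definition used: TGI = concentration required for complete inhibition of growth.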

Assays:
Assay in all cases: NCI tumour cell line growth inhibition, 48 h
[1] = test system: MDA-MB-435
[2] = test system: NCI-H23 lung
[3] = test system: SN12C renal
[4] = test system: SF-268 CNS
[5] = test system: HOP-62 NSCLC
[6] = test system: HT29 colon
[7] = test system: T-47D breast
[8] = test system: LOX IMVI melanoma
[9] = test system: OVCAR-4 ovarian
[10] = test system: UACC-62 melanoma

Structure (SMILES) | GI50 [1] [µM] | TGI [1] [µM] | GI50 [2] [µM] | TGI [2] [µM] | GI50 [3] [µM] | TGI [3] | GI50 [4] [µM] | TGI [4] | GI50 [5] [µM] | TGI [5] | GI50 [6] [µM] | TGI [6] | GI50 [7] [µM] | TGI [7] [µM] | GI50 [8] [µM] | TGI [8] | GI50 [9] [µM] | TGI [9] [µM] | GI50 [10] [µM] | TGI [10] [µM]
CC1(C)C2CCC13C(=O)C1OC3(C2)C2C(=O)c3cc4ccccc4cc3C(=O)C12 (stereo not drawn) | 8.58 | > 100 | 4.75 | 32.6 | 19.3 | > 100 µM | 5.29 | 82.4 µM | 7.64 | 45.3 µM | 11.3 | > 100 µM | 4.68 | 50.5 |  |  |  |  |  | 
CCCCCCCCNc1cc2c3c(c1)CCCN3CCC2 | 0.951 | 11.7 | 1.79 | 18.1 | 2.56 | 14.7 µM | 2.04 | 12.8 µM | 4.04 | 18.3 µM | 0.774 | 11.1 µM | 1.34 | 21 | 1.57 | 28.5 µM | 1.94 | 12 | 2.16 | 16.4
C=C(C)C(O)CCC1(C)C=Cc2c(c(C)cc3c2[nH]c2ccccc23)O1 (stereo not drawn) |  | 21.3 |  | 23.3 | 9.57 | 25 µM and 21.5 µM | 5.6 | 25 µM and 19.3 µM | 2.47 | 9.46 µM and 6.11 µM | 1.71 | 8.53 µM and 3.26 µM |  | 21.5 | 3.12 | 8.4 µM and 12.2 µM |  | 30.8 |  | 11
COc1ccc(-c2cc3c(c4cc(OC)ccc24)C(=O)OC3=O)cc1 |  | > 100 |  | > 100 |  | > 100 µM |  | > 100 µM |  | > 100 µM |  | > 100 µM |  | > 100 |  | > 100 µM |  | > 100 |  | > 100
O.O.[NH-]C1(C(=O)O)CCCC1.[NH-]C1(C(=O)O)CCCC1.[Ni+2] | > 100 | > 100 |  | > 100 |  | > 100 µM |  | > 100 µM |  | > 100 µM |  | > 100 µM | > 100 | > 100 |  | > 100 µM |  | > 100 |  | > 100
N#CC1(C#N)C2(c3ccccc3)OC(c3ccccc3)(c3cc4ccccc4cc32)C1(C#N)C#N |  | 31.7 |  | 16.6 |  | 36.2 µM |  | 39.5 µM |  | 36.4 µM |  | 29.3 µM |  | 46.5 |  | 11.1 µM |  | 27.2 |  | 37
CCOC(=O)c1c(C)nc2c(c1N)CC(=O)N2Cc1ccc(OC)cc1 | > 100 | > 100 | 4.26 | > 100 | > 100 | > 100 µM | 4.29 | > 100 µM | 2.1 | 5.97 µM | > 100 | > 100 µM | 25.9 | > 100 | > 100 | > 100 µM | > 100 | > 100 | 34.1 | > 100
N=C1C(c2nc3ccccc3s2)=C(O)CN1c1ccc(F)c(Cl)c1 | 61.9 | > 100 | 34.8 | > 100 | 34.6 | > 100 µM | 22 | > 100 µM | 18.1 | 36.2 µM | 28.9 | > 100 µM | 72.5 | > 100 | 20.3 | > 100 µM | 20.5 | > 100 | 16.8 | 52.7
C=C1C(=O)O[C@@H]2C[C@@H](C)[C@@H]3C=CC(=O)[C@@]3(C)[C@@H](O)[C@H]12 |  | 3.39 |  | 4.15 |  | 2.91 µM |  | 27.9 µM |  | 17.7 µM |  | 3.88 µM |  | 12.2 |  | 2.01 µM |  | 10.5 |  | 5.46
C=CCOc1cc(NC(=S)c2ccoc2C)ccc1OC |  | > 100 |  | > 100 |  | > 100 µM |  | > 100 µM |  |  |  | > 100 µM |  | > 100 |  | > 100 µM |  | > 100 |  | > 100
CN(CCO)CC[C@H](CSc1ccccc1)Nc1ccc(S(=O)(=O)NC(=O)c2ccc(N3CCC([C@@H](O)c4ccccc4-c4ccc(Cl)cc4)CC3)cc2)cc1S(=O)(=O)C(F)(F)F | 2.31 | 6.51 | 17.7 | > 100 | 2.99 | 11.5 µM | 3.92 | > 46 µM | 5.9 | 35.5 µM | 7.45 | 60.6 µM | 4.26 | 59.6 | 1.43 | 2.97 µM | 17.6 | > 100 | 1.8 | 4.13
O=c1[nH]nnc2c1ncn2C1OC(CO)C(O)C1O (stereo not drawn) | 14.2 | > 100 | 14.5 | > 100 | 38.3 | > 100 µM | 19.1 | > 100 µM | 10.7 | > 100 µM | 13 | > 100 µM | 38.8 | > 100 | 2.23 | > 100 µM | 5.02 | > 100 | 4.95 | > 100
CN1CCC2(CC1)ONC1=NCCN12 | 80.6 | > 100 | 34.5 | > 100 | 15.8 | 40.2 µM | 37.2 | > 100 µM | 52.9 | > 100 µM | 53.7 | > 100 µM | 99.8 | > 100 |  |  | > 100 | > 100 | 31.2 | > 100
OC(Cc1ccncc1)C(Cl)(Cl)Cl (stereo not drawn) | > 100 | > 100 | 76.3 | > 100 | > 100 | > 100 µM | > 100 | > 100 µM | > 100 | > 100 µM | > 100 | > 100 µM | > 100 | > 100 | > 100 | > 100 µM | > 100 | > 100 | > 100 | > 100
